Read-outs that look alike come from different tables or passages of the source.
Tests used:
[1] = system: Staph. aureus 29213; assay: MIC, quality control strain; type: cell-based; conditions: Staphylococcus aureus
Method: (§1) Bacterial isolates were obtained from human infections. The isolates were maintained frozen in a liquid nitrogen freezer and plated on Trypticase Soy Agar (TSA) plates supplemented with 5% sheep blood. The quality control strain Staph. aureus 29213 was originally acquired from the American Type Culture Collection (Rockville, Md.).
(§2) MICs were determined by an agar dilution method or microbroth dilution method recommended by NCCLS. Synergy was assessed by agar dilution checker-board method. Minimal inhibitory concentrations (MICS) for each separate drug were determined. The fractional inhibitory concentration (FIC) values were calculated by the MIC of Drug A (e.g., sulbactam/ampicillin) and Drug B (e.g., linezolid or arbekacin) in combination/MIC of Drug A or B alone. The FIC index was determined according to the following formula: [formula]

[2] = system: MRSA strains; assay: MIC by agar dilution or microbroth dilution method (NCCLS); type: cell-based, Staph. aureus; conditions: for MIC: Staphylococcus aureus
Method: as §1, §2

[3] = system: VRSA strains; assay: MIC by agar dilution or microbroth dilution method (NCCLS), VRSA strains; type: cell-based, Staph. aureus; conditions: VRSA strains (n = 10)
Method: as §1, §2
In total, 48 MRSA strains were tested, including ten VRSA strains isolated from five different countries in the world, 33 MRSA strains isolated from ten Japanese university hospitals, and five MRSA type strains from Juntendo University, Department of Bacteriology, Tokyo, Japan.

CN[C@H](CC(C)C)C(=O)N[C@H]1C(=O)N[C@@H](CC(N)=O)C(=O)N[C@H]2C(=O)N[C@H]3C(=O)N[C@H](C(=O)N[C@H](C(=O)O)c4cc(O)cc(O)c4-c4cc3ccc4O)[C@H](O)c3ccc(c(Cl)c3)Oc3cc2cc(c3O[C@@H]2O[C@H](CO)[C@@H](O)[C@H](O)[C@H]2O[C@H]2C[C@](C)(N)[C@H](O)[C@H](C)O2)Oc2ccc(cc2Cl)[C@H]1O [VCM, vancomycin]
MIC ([1]; ATCC29213, read-out: MIC Values, strain ATCC 29213, control sample (Ex. 26)): 1 µg/mL | MIC ([1]; ATCC29213, read-out: MIC Values, strain ATCC29213, control sample (Ex. 37)): 0.5 µg/mL | MICs Range ([2]; MRSA strains (n = 38)): 0.5 to 2 mg/L | MIC ([2]; MRSA / NCTC 10442, read-out: MIC Values, strain NCTC 10442): 1 µg/mL | MIC ([2]; MRSA, read-out: MIC Values, strain 85/2082): 1 µg/mL | MIC ([2]; MRSA, read-out: MIC Values, strain 99.3700W): 2 µg/mL | MIC ([2]; MRSA, read-out: MIC Values, strain 99.3759V): 2 µg/mL | MIC ([2]; MRSA, read-out: MIC Values, strain AMC 11094): 4 µg/mL | MIC ([2]; MRSA, read-out: MIC Values, strain BM12612(new)): 2 µg/mL | MIC ([2]; MRSA, read-out: MIC Values, strain H1): 0.5 µg/mL | MIC ([2]; MRSA, read-out: MIC Values, strain HIP 5827): 4 µg/mL | MIC ([2]; MRSA, read-out: MIC Values, strain HIP 5836): 4 µg/mL | MIC ([2]; MRSA, read-out: MIC Values, strain HIP 6297): 2 µg/mL | MIC ([2]; MRSA, read-out: MIC Values, strain HIP 7737): 4 µg/mL | MIC ([2]; MRSA, read-out: MIC Values, strain JSCC 340): 1 µg/mL | MIC ([2]; MRSA, read-out: MIC Values, strain JSCC 351): 1 µg/mL | MIC ([2]; MRSA, read-out: MIC Values, strain JSCC 363): 1 µg/mL | MIC ([2]; MRSA, read-out: MIC Values, strain JSCC 381): 1 µg/mL | MIC ([2]; MRSA, read-out: MIC Values, strain JSCC 390): 1 µg/mL | MIC ([2]; MRSA, read-out: MIC Values, strain JSCC 401): 1 µg/mL | MIC ([2]; MRSA, read-out: MIC Values, strain JSCC 413): 1 µg/mL | MIC ([2]; MRSA, read-out: MIC Values, strain JSCC 431): 0.5 µg/mL | MIC ([2]; MRSA, read-out: MIC Values, strain JSCC 440): 1 µg/mL | MIC ([2]; MRSA, read-out: MIC Values, strain JSCC 451): 1 µg/mL | MIC ([2]; MRSA, read-out: MIC Values, strain JSCC 463): 1 µg/mL | MIC ([2]; MRSA, read-out: MIC Values, strain JSCC 481): 1 µg/mL | MIC ([2]; MRSA, read-out: MIC Values, strain JSCC 490): 1 µg/mL | MIC ([2]; MRSA, read-out: MIC Values, strain JSCC 501): 1 µg/mL | MIC ([2]; MRSA, read-out: MIC Values, strain JSCC 513): 1 µg/mL | MIC ([2]; MRSA, read-out: MIC Values, strain JSCC 531): 1 µg/mL | MIC ([2]; MRSA, read-out: MIC Values, strain JSCC 540): 1 µg/mL | MIC ([2]; MRSA, read-out: MIC Values, strain JSCC 551): 0.5 µg/mL | MIC ([2]; MRSA, read-out: MIC Values, strain JSCC 563): 1 µg/mL | MIC ([2]; MRSA, read-out: MIC Values, strain JSCC 581 (lacks the mecA gene)): 1 µg/mL | MIC ([2]; MRSA, read-out: MIC Values, strain JSCC 590 (lacks the mecA gene)): 1 µg/mL | MIC ([2]; MRSA, read-out: MIC Values, strain JSCC 601): 0.5 µg/mL | MIC ([2]; MRSA, read-out: MIC Values, strain JSCC 640): 1 µg/mL | MIC ([2]; MRSA, read-out: MIC Values, strain JSCC 651): 1 µg/mL | MIC ([2]; MRSA, read-out: MIC Values, strain JSCC 663): 1 µg/mL | MIC ([2]; MRSA, read-out: MIC Values, strain JSCC 681): 1 µg/mL | MIC ([2]; MRSA, read-out: MIC Values, strain JSCC 690): 1 µg/mL | MIC ([2]; MRSA, read-out: MIC Values, strain JSCC 701): 1 µg/mL | MIC ([2]; MRSA, read-out: MIC Values, strain JSCC 713): 2 µg/mL | MIC ([2]; MRSA, read-out: MIC Values, strain JSCC 731): 0.5 µg/mL | MIC ([2]; MRSA, read-out: MIC Values, strain JSCC 740): 0.5 µg/mL | MIC ([2]; MRSA, read-out: MIC Values, strain JSCC 751): 0.5 µg/mL | MIC ([2]; MRSA, read-out: MIC Values, strain JSCC 763): 0.5 µg/mL | MIC ([2]; MRSA, read-out: MIC Values, strain JSCC 781): 2 µg/mL | MIC ([2]; MRSA, read-out: MIC Values, strain JSCC 870): 1 µg/mL | MIC ([2]; MRSA, read-out: MIC Values, strain LIM 2): 2 µg/mL | MIC ([2]; MRSA, read-out: MIC Values, strain Mu 3): 1 µg/mL | MIC ([2]; MRSA, read-out: MIC Values, strain Mu 50): 4 µg/mL | MIC ([2]; MRSA, read-out: MIC Values, strain N315): 0.5 µg/mL | MICs Range [3]: 2 to 4 mg/L
